Experimental data reported in paper PMC3000476, “Amino acid derivatives are substrates or non-transported inhibitors of the amino acid transporter PAT2 (slc36a2)” (Biochimica et Biophysica Acta, 2011).

How the values were obtained:
[1] = target: T1, PAT2 (Rattus norvegicus, UniProt Q8K415); assay: inhibition of L-proline-induced current (TEVC) in PAT2-expressing oocytes; also uptake inhibition IC50 […]; format: cell-based
T1 construct: gene Slc36a2

[2] = target: T1, PAT2
[3] = target: T1, PAT2; assay: L-[3H]pipecolic acid uptake and TEVC competition with glycine in PAT2-expressing oocytes; format: cell-based
[4] = target: T1, PAT2; assay: inhibition of L-[3H]proline uptake in PAT2-expressing Xenopus oocytes; TEVC; no trans-stimulation of efflux; format: cell-based
[5] = target: T1, PAT2; assay: competition with L-[3H]proline uptake in PAT2-expressing Xenopus oocytes; TEVC; format: cell-based
[6] = target: T1, PAT2; assay: competition with L-[3H]proline uptake in PAT2-expressing Xenopus oocytes; format: cell-based

T1 sequence (Q8K415 whole entry): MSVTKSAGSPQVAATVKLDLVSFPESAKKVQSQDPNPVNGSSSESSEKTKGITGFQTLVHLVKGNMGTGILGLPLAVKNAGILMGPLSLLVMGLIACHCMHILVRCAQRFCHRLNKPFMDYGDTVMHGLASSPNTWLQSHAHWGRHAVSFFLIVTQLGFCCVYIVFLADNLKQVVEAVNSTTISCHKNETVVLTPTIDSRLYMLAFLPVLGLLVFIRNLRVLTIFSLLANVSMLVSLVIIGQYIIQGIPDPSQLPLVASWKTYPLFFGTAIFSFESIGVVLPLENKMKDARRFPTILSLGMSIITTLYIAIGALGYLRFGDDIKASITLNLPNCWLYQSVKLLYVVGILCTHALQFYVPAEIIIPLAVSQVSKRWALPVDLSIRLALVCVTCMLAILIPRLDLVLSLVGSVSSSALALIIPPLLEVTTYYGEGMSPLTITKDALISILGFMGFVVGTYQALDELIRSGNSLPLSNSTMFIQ

Question: `CC(N)(Cc1c[nH]c2ccccc12)C(=O)O` (racemic) [Me-Trp, α-methyl-D,L-tryptophan] was tested. Which IC50 [1] did it give?
Answer: 2.7 ± 0.1 mM

Question: For `NCC(=O)O` [Gly, glycine], which “[3H]glycine uptake, TEVC current and trans-stimulation of L-[3H]proline efflux i” value [2] is on record?
Answer: 934 ± 22 pmol oocyte^− 1 (40 min)^− 1

Question: `O=C(O)[C@@H]1CCCCN1` [L-Pip, L-pipecolic acid] was tested. Which “L-[3H]pipecolic acid uptake” value [3] did it give?
Answer: 224 ± 19 pmol oocyte^− 1 (40 min)^− 1

Question: With `N[C@@H](Cc1c[nH]c2ccc(O)cc12)C(=O)O` [OH-Trp, 5-hydroxy-L-tryptophan] as the compound, how does the IC50 [4] read?
Answer: 1.6 ± 0.4 mM

Question: Which IC50 [5] does the source give for `O=C(O)[C@H]1NCC[C@@H]1O` [T3HP, trans-3-hydroxy-L-proline] here?
Answer: 13.1 ± 4.2 mM

Question: For `O=C(O)[C@@H]1C[C@@H](O)CN1` [T4HP, trans-4-hydroxy-L-proline], which IC50 [6] is on record?
Answer: 0.7 ± 0.2 mM
